Data from patent US8703161B2, “Skin repair compositions comprising circadian gene activators and a synergistic combination of Sirt1 gene activators” (ELC Management, LLC, priority 2007, dated 2014).
Ends that are not written are not given here.

Test system: UVB-irradiated human keratinocytes
Experiment: Survival of UVB-irradiated keratinocytes, MTS viability (Example 1)
Format: cell-based
Details: for decreased survival rate: 45 mJ/cm2 UV
Procedure: Orsirtine™ ((SEQ ID No. 8) G-L-Y-D-N-L-E) and resveratrol, […], were tested for their ability to improve survival of UVB-irradiated human keratinocytes.
Normal human keratinocytes were cultured in Epilife Medium with Human Keratinocyte Growth Supplement. The cells were sub-cultured into 96-well plates (Costar). Keratinocytes were pretreated with resveratrol (25 μM) and Orsirtine (1%, 3%) by themselves, and in a complex of resveratrol (25 μM) and Orsirtine™ (3%). Keratinocytes were treated with the undiluted complex and with dilutions of 1:2, 1:4 and 1:8 (complex: Epilife media).
Keratinocytes were incubated with these treatments overnight at 37° C.; 5% CO2. After 24 hours, the treatment was aspirated and keratinocytes were washed once in D-PBS. 100 μl of D-PBS was added for the irradiation. The cells were subjected to UVB irradiation at 0, 45, 90 and 135 mJ/cm^2 UVB. After the irradiation, D-PBS was removed. Keratinocytes were post treated appropriately and incubated overnight at 37° C.; 5% CO2. The next day, cells were assayed for viability, utilizing MTS reagent (CellTiter96, Promega). Absorbance readings were taken on the SpectraMax190 spectrophotometer (Molecular Devices) at 490 nm following an approximate two hour incubation at 37° C.; 5% CO2.

[1] = Orsirtine 3% alone, listed as Orsirtine ™

| Molecule | decreased survival rate (just resveratrol (25 μM)) | Increased survival after 90 mJ/cm^2 UV (Resveratrol 25 μM alone) | Increased survival after 135 mJ/cm^2 UV (Resveratrol 25 μM alone) | decreased survivability (UVB of 90 mJ/cm^2, 25 μM Resveratrol by itself) | decreased survival rate (just Orsirtine 3%) | Increased survival after 90 mJ/cm^2 UV (Orsirtine 1% alone) | Increased survival after 135 mJ/cm^2 UV (Orsirtine 1% alone) | Increased survival after 90 mJ/cm^2 UV (Orsirtine 3% alone) | Increased survival after 135 mJ/cm^2 UV (Orsirtine 3% alone) | Increased survival after 90 mJ/cm^2 UV [1] | Increased survival after 135 mJ/cm^2 UV [1] |
| --- | --- | --- | --- | --- | --- | --- | --- | --- | --- | --- | --- |
| Oc1ccc(/C=C\c2cc(O)cc(O)c2)cc1 [Resveratrol, 3,5,4′-trihydroxystilbene, reference compound] | 20% | −15% | 22% | 15% |  |  |  |  |  |  |  |
| GLYDNLE [Orsirtine™, peptide G-L-Y-D-N-L-E, INCI Water (and) Glycerin (and) Oryza Sativa (Rice) Extract, from ISP Vincience] |  |  |  |  | 8% | −17% | 5% | 11% | 26% | 11% | 26% |
